The nature of data set [1]: Solubility in organic solvents and water. Type of data set: physicochemical.
Data set [2] is described as follows: Conductivity of glyme (DME) solutions. It is filed as physicochemical. An excerpt: A calibrated Yellow Springs model 3403 conductivity cell (cell constant k=1.113) and a model 31 conductivity bridge were employed. The measurements were made in a nitrogen-filled glove box. […] The concentration dependence of the conductivity of a lithium salt in a dilute solution is expected to be linear. The conductivity of a 0.01 M glyme solution of LiB12F11NMe3 is therefore expected to be about 78 μS cm^−1. The conductivity of a 0.0050 M glyme solution LiB12F11NMe3 is approximately ten times higher than the conductivity of a 0.010 M glyme solution of lithium triflate (4 μS cm−1).
The conductivities of solutions of Li(Dd3NB12F11) and Li(Bn2HNB12F11) (the latter sample was contaminated with about 15% Li(BnH2NB12F11)) were measured using a similar procedure as that of Example 25. A calibrated Yellow Springs model 3403 conductivity cell (cell constant k=0.98 cm−1) and a Yellow Springs model 31 conductivity bridge was employed. The measurements were made in a nitrogen-filled glove box. The conductivities of glyme solutions of Li(Dd3NB12F11), Li(Bn2HNB12F11), and lithium salts of related anions are listed in Table 2.

For data set [3] the following is noted: comparison species; cited from earlier work.
Data set [4] in a line: Olefin polymerization catalyst activator test. The settings on record: 20 μmole Zr, Zr/A/Al 1/4/250, MAO; listed as C. An excerpt: All solvents used in synthesis and polymerization experiments were obtained when possible as anhydrous grade and further purified as described below. Diethyl ether, hexanes and toluene were obtained from Aldrich Chemical Company (Milwaukee, Wis.) in Sure Seal® bottles as anhydrous grade. Solvents were further purified by passing through columns packed with activated A2 alumina and Q-5 catalyst which had been reduced tbennally under hydrogen. Methylliium in aiethyl ether, zirconecene dichloride, pentamethylcyclopentadienyl zirconium dichloride and methylaluminoxane (10 wt. % in toluene) were obtained from Aldrich Chemical Company and used without further purification. Methyllithium was titrated with an aqueous HCl standard (Aldrich Chemical Company) against a phenolphthalein indicator in order to determine the concentration prior to use. Tris(perfluorophenyl)borate (i.e., B2 borate) was obtained as a research sample from Albermarle (Baton Rouge, La.) (Lot # 29779501-10) and used without further purification.
The solvent for polymerization experiments was 2,2,4-trimethylpentane (i.e., iso-octane) which was obtained from Aldrich Chemical Company in 18 L Stainless Steel Kilo Lab® Cylinders as anhydrous grade. The polymerization solvent was further purified by passing through columns packed with activated 13× molecular sieves and Q-5 catalyst. Periodic checks were performed on the water content of the solvent by Karl Fischer Columbmetric Titration and determined to contain 3 ppm or less water after purification. Solids were stored, weighed and transferred in glove box equipped with a catalyst train under dry nitrogen. Polymerization stock solutions and compositions were prepared in septum fitted bottles in a glove box. All solutions were freshly prepared for each set of evaluations.
All solutions were prepared in a glove box under dry nitrogen in a glass narrow mouth bottle fitted with a septum. This solution was prepared by the dissolution of 63 mg of Cp2ZrMe2 in 50 mL of dry, nitrogen degassed toluene. The complex was completely miscible in the solvent. […]

The mark [5] stands for this setting: lithium salts, 0.0100 M DME solutions, 25° C., nitrogen atm.

Several values for one entry are separate records, joined by “and”; a condition that tells them apart may be missing. Equal entries are not always repeated.

As for `CCCC[N+](CCCC)(CCCC)CCCC.F[B-](F)(F)F` [[NBu4][BF4]], in data set [1], the “solubility in water relative to [NBu4][H3NB12F11]” value is listed as “higher solubility”.
As to `O=S(=O)([O-])C(F)(F)F.[Li+]` [lithium triflate], the conductivity in data set [2] (0.010 M glyme solution) was 4 μS cm^−1; in data set [2] (setting [5]), 4 μS cm−1.
Take `S` [HS^−1]: in data set [3], the “pKa value of selected acids” value was 19.0.
Take `Fc1c(F)c(F)c(OB(Oc2c(F)c(F)c(F)c(F)c2F)Oc2c(F)c(F)c(F)c(F)c2F)c(F)c1F` [B2 borate, Tris(perfluorophenyl)borate]: in data set [4], the “Final Rate C2H4 uptake” value is 0.7 g/m and 0.9 g/m and 1.3 g/m and 0.8 g/m; the “Max Exotherm” value is 1 °C and 2 °C; the “Max Rate C2H4 uptake” value was 26.3 g/m and 21.7 g/m and 16.3 g/m and 24.9 g/m and 31.3 g/m.
Turning to `CN` [NH3Me^+1], the “pKa value of selected acids” value in data set [3] was 10.7.
As for `CCCCN` [NH3Bu^+1], in data set [3], the “pKa value of selected acids” value is reported as 10.8.
`F[P-](F)(F)(F)(F)F.[Li+]` [LiPF6]: the conductivity in data set [2] (setting [5]) is recorded as 73 μS cm−1.

(Values after patent publication US6335466B1, “Fluorinated amino polyhedral borate compounds” (Colorado State University Research Foundation, priority 2000, dated 2002).)
